Molecular target: T1, Estrogen receptor (Homo sapiens, UniProt P03372)
T1 sequence (P03372 whole entry): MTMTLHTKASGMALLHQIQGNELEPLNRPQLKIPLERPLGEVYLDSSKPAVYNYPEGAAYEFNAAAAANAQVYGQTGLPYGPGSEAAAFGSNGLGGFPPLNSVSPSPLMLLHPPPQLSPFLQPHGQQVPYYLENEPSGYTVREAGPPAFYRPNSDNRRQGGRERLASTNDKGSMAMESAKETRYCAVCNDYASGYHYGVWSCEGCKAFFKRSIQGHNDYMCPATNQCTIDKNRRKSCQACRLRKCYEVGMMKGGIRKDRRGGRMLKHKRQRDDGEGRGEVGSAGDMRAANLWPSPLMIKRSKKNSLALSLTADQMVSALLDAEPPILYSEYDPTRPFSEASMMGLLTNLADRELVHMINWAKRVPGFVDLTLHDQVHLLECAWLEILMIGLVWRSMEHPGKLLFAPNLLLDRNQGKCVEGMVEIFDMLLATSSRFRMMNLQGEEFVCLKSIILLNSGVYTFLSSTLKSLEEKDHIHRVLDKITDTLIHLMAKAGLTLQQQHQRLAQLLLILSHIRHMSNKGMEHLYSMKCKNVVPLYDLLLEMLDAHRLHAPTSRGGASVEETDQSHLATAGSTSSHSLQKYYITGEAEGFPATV
Experiment: Inhibition of estrogen receptor

| Compound | IC50 [µM] |
| --- | --- |
| CCCC1=C(C(=O)OCC)[C@H](c2ccnc3ccccc23)C(C#N)C(C)=N1 (stereo partly drawn) [(R)-Ethyl 5-Cyano-6-methyl-2-propyl-4-quinolin-4-yl-1,4-dihydropyridine-3-carboxylate] | > 10 |
| CC1=NC(C)=C(C(=O)OC(C)(C)C)[C@H](c2ccc(F)cc2Cl)C1C#N (stereo partly drawn) [tert-Butyl (4R)-4-(2-Chloro-4-fluorophenyl)-5-cyano-2,6-dimethyl-1,4-dihydropyridine-3-carboxylate] | > 10 |

Reference: BindingDB's records for doi:10.1021/jm1002827 (Pfizer, 2010)
